Laboratory results published in patent US20230048888A1, “USE OF TRIAZOLOTRIAZINE DERIVATIVE IN TREATMENT OF DISEASES” (ZHEJIANG VIMGREEN PHARMACEUTICALS, LTD., priority 2019, published 2023).
Read-outs that look alike come from different tables or passages of the source.

Legend:
[1] = test system: murine colon cancer MC38 cell line; test: Subcutaneous homotransplantation of murine colon cancer MC38 cell line in C57BL/6 female mice; assay type: in vivo; settings: for T/C (%) / TGI (%) / Tumor volume: Day 22
Procedure: The MC38 mouse colon cancer cell model is a commonly used model for verifying a pharmaceutical effect on the colon cancer. It is mostly used to study the occurrence and metastasis direction of the colorectal cancer, and has become a common approach to the pharmaceutical effect verification for tumors. The anti-tumor effect of the subcutaneous homotransplantation of a test drug in a murine colon cancer MC38 cell line of C57BL/6 female mouse model was evaluated.
MC38 cells were cultured in a DMEM culture solution containing 10% fetal bovine serum. The MC38 cells in the exponential growth phase were collected and resuspended in PBS to a suitable concentration for subcutaneous tumor inoculation in mice.
Female mice were subcutaneously inoculated with 1×10^6 MC38 cells on the right side. The day of inoculation was defined as Day 0. On the second day (Day 1) of […] cell inoculation, the mice were administered randomly according to body weight. The solution of Compound 22 was prepared at 3 mg/mL and 10 mg/mL respectively for later use.
Formula for calculating tumor volume: tumor volume (mm^3)=½×(a×b^2) (a representing a long diameter and b representing a short diameter);
Tumor proliferation rate, T/C %, was a percentage ratio of tumor volume or tumor weight between the treatment group and the control group at a certain time point. It was calculated with a formula was as follows:
T/C %=TTV/CTV×100% (TTV (TTV: the average TV of the treatment group at a specific time point;
All experimental results were represented as the average tumor volume±SEM (mean standard error). Statistical analysis between different groups were conducted to select the optimal drug treatment point (usually after the last dosage). A comparison was conducted with the independent sample T test method to determine if there is a significant difference in tumor volume between the treatment group ad the control group. All data were analyzed with SPSS 18.0. P<0.05 indicated a significant difference.

[2] = Pharmacokinetic evaluation of Compound 22 in female BALB/c mice in different vehicles; assay type: in vivo; settings: mouse, plasma, po, 100 mg/kg, 100 mg/kg p.o. single; for half-life: read-out: T½ (converted)
Procedure: BALB/c mice, female, 7-9 weeks old (the age of mice at the start of the experiment), weight: 19.2-22.1 g, […] (34 mice plus another 10 surplus mice). They were purchased from Shanghai Lingchang Biotechnology Co., Ltd. (LC), with animal certificate number: 2013001835211. Rearing environment: SPF level.
After single administration, plasma was collected from each group at 0.25 h, 0.5 h, 1 h, 2 h, 4 h, 6 h, 8 h and 24 h, with 3 mice at each time point, and the experiment was terminated after 24h. 10 remaining mice were used to collect blank plasma.

[3] = test system: haloperidol-induced stiffness; test: Haloperidol-induced Wistar rat stiffness model (bar test, rearing); assay type: in vivo, Wistar rats; settings: 10 mg/kg intragastric
Procedure: Time of bar test: The stiffness of the rats was tested by the bar test. That is, a wooden bar with a diameter of 8 mm was fixed between 2 iron stands and was 10 cm from the bench top; and then, the rat's tail was grabbed to make its front paws rest on the wooden bar and its hind paws or buttocks on the ground. Generally, the rat needs to acclimate several times when it was tested for the first time. The time for the forelimbs to drop from the bar or the time for the hind limbs to leave the bench top were tested, each rat was tested 3 times. Number of standings: the number of standings of the rat was measured by the rearing test. That is, the rat was placed in a 27*52 cm cage and acclimate for 5 minutes, and the spontaneous activity behavior, i.e., the number of standings, of the rat within 10 minutes was recorded. When the rat's hind limbs stood with two forelimbs raised over the shoulders and touched the ground, one standing is counted, and the one forelimb lift was excluded. Generally, the rat would raise its forelimbs to touch the cage wall. If the rat raised its forelimbs over the shoulders several times without falling to the ground, only one standing was counted. The time of bar test was taken as a measurement index, including the average time and the maximum time. Long time indicates severe stiffness, short time indicates mild stiffness. After drug treatment, the shorter the time of bar test, the better the effect of the drug on relieving stiffness. The number of standings was counted by the rearing test. The more the number of standings, the more frequent the spontaneous exploration activity of the rat, and the lower the stiffness. The statistical analysis between groups was performed on the data by using Prism GraphPad 7.0 independent sample T test, and P<0.05 was considered as a significant difference.

[4] = test system: reserpine-induced dyskinesia; test: Rat reserpine-induced dyskinesia model; assay type: in vivo
[5] = 30 mg/kg p.o. QD combined with Anti-PD-1 100 μg/animal i.p.
[6] = Group 1, vehicle 40% PEG400/60% water
[7] = Group 2, vehicle 40% (2-hydroxypropyl)-β-cyclodextrin
[8] = 15 mg/kg intragastric, 0-30 min
[9] = 15 mg/kg intragastric, 0-60 min
[10] = 15 mg/kg intragastric, 30-60 min
[11] = 7.5 mg/kg intragastric, 0-30 min
[12] = 7.5 mg/kg intragastric, 0-60 min
[13] = 7.5 mg/kg intragastric, 30-60 min
[14] = 30 mg/kg intragastric, 0-30 min
[15] = 30 mg/kg intragastric, 0-60 min
[16] = 30 mg/kg intragastric, 30-60 min

In the case of Nc1nc(NCCc2ccc(NC3COC3)cc2)nc2nc(-c3ccco3)nn12 [Compound 22, 2-(furan-2-yl)-N5-(4-(oxetan-3-ylamino)phenethyl)-[1,2,4]triazolo[1,5-a][1,3,5]triazine-5,7-diamine], the “T/C (%)” value ([1]; 30 mg/kg p.o. QD) is reported as 66%, the “TGI (%)” value ([1]; 30 mg/kg p.o. QD) is reported as 34% and the Tumor volume ([1]; 30 mg/kg p.o. QD) is reported as 1205.60 ± 259.65 mm^3. For the same compound, the “T/C (%)” value [1, 5] was 15%, the “TGI (%)” value [1, 5] was 85% and the Tumor volume [1, 5] was 268.89 ± 57.10 mm^3. The “T/C (%)” value ([1]; 100 mg/kg p.o. QD) was 52%, the “TGI (%)” value ([1]; 100 mg/kg p.o. QD) was 48% and the Tumor volume ([1]; 100 mg/kg p.o. QD) was 951.28 ± 116.30 mm^3. The “Animal death / changes in body weight” value ([1]; alone or combined with anti-PD-1 antibody) was “no animal death or significant changes in body weight”, the AUC(0-inf) [2, 6] was 16100 ng·h/mL and the AUC(0-t) [2, 6] was 15900 ng·h/mL. The Cmax [2, 6] was 2080 ng/mL, the Tmax [2, 6] was 1 h and the half-life [2, 6] was 3.04 h. It also gave an AUC(0-inf) [2, 7] of 28500 ng·h/mL, an AUC(0-t) [2, 7] of 28400 ng·h/mL and a Cmax [2, 7] of 5580 ng/mL. For the same compound, the Tmax [2, 7] was 0.5 h and the half-life [2, 7] was 2.66 h.
For CCn1c(=O)c2c(nc(/C=C/c3ccc(OC)c(OC)c3)n2C)n(CC)c1=O [Istradefylline, reference compound], the “Average on-bar time” value [3] was 10.33 ± 1.58 s, the “Maximum on-bar time” value [3] was 15.38 ± 2.75 s and the Number of standings ([3]; 1st hour after haloperidol) was 23.25 ± 2.86. The Number of standings [4, 8] was 44.1 ± 7.9, the Walking distance [4, 8] was 1.6 ± 0.6 m and the Walking time [4, 8] was 19.6 ± 5.9 s. For the same compound, the Number of standings [4, 9] was 95.7 ± 16.3, the Walking distance [4, 9] was 2.9 ± 0.9 m and the Walking time [4, 9] was 35.1 ± 10.1 s. For the same compound, the Number of standings [4, 10] was 51.6 ± 9.7, the Walking distance [4, 10] was 1.3 ± 0.4 m and the Walking time [4, 10] was 32.0 ± 13.7 s.
With CC(=O)O.Nc1nc(NCCc2ccc(NC3COC3)cc2)nc2nc(-c3ccco3)nn12 [Acetate of Compound 22, 2-(furan-2-yl)-N5-(4-(oxetane-3-ylamino)phenethyl)-[1,2,4]triazolo[1,5-a][1,3,5]triazine-5,7-diamine acetate] the Number of standings [4, 11] was 28.5 ± 7.1, the Walking distance [4, 11] was 0.9 ± 0.3 m and the Walking time [4, 11] was 9.3 ± 4.3 s. For the same compound, the Number of standings [4, 12] was 56.7 ± 12.6, the Walking distance [4, 12] was 2.0 ± 0.6 m and the Walking time [4, 12] was 17.8 ± 7.5 s. For the same compound, the Number of standings [4, 13] was 28.3 ± 6.9, the Walking distance [4, 13] was 1.0 ± 0.3 m and the Walking time [4, 13] was 16.2 ± 7.6 s. The Number of standings [4, 8] was 51.9 ± 7.4, the Walking distance [4, 8] was 1.8 ± 0.4 m and the Walking time [4, 8] was 26.3 ± 5.6 s. It also gave a Number of standings [4, 9] of 110 ± 12.7, a Walking distance [4, 9] of 3.8 ± 0.6 m and a Walking time [4, 9] of 48.5 ± 8.2 s. The Number of standings [4, 10] was 58.2 ± 7.7, the Walking distance [4, 10] was 2.0 ± 0.4 m and the Walking time [4, 10] was 40.3 ± 15.6 s. The Number of standings [4, 14] was 56.5 ± 9.6, the Walking distance [4, 14] was 2.5 ± 1.0 m and the Walking time [4, 14] was 35.8 ± 12.6 s. The Number of standings [4, 15] was 97.9 ± 15.3, the Walking distance [4, 15] was 3.9 ± 1.4 m and the Walking time [4, 15] was 52.9 ± 17.5 s. For the same compound, the Number of standings [4, 16] was 41.5 ± 6.7, the Walking distance [4, 16] was 1.4 ± 0.4 m and the Walking time [4, 16] was 33.2 ± 12.2 s.
